According to patent US20190264229A1, “DEVICE, SYSTEM AND METHOD FOR INTRACELLULAR DELIVERY OF SUBSTANCES” (Agency for Science, Technology and Research, priority 2016, published 2019):

Tested on: HEK293T cells
Assay: Pipette tip filter loading of fluorescein-labeled cargo into HEK293T cells, flow cytometry
Type: cell-based
Conditions: pipetted through the filter vs not passed through the filter, 0.4 million HEK293T, 12 hours recovery
Method: To establish if other cargoes can be loaded with this method, 0.4 million HEK293T cells were mixed with 50 pmoles of fluorescein-labeled 21nt DNA oligonucleotide, 50 pmoles of fluorescein-labeled 21nt double-stranded siRNA, or 5 μg of fluorescein-dextran (MW 3000-5000) in 500 μl of OptiMEM. The mixture was aspirated and dispensed through the filter with the 1 ml pipette in triplicates. The mixture was then transferred into 2 ml of regular DMEM medium and the cells allowed to recover for 12 hours at 37° C. After which, the cells were washed 3 times with DMEM and collected for flow cytometry.

With Dextran the “percentage of cells having a higher than background fluorescence” value was “clearly higher”.
